In patent US20240407365A1, “Method for Treating Technical Products” (THOR GMBH, priority 2021, published 2024):

Experiment: amount of CMIT remaining in water-based dispersion paint after storage, HPLC
Format: physicochemical
Conditions: NaPy 130 ppm, paint pH 8.3
Method: The amounts of 5-chloro-2-methyl-4-isothiazolinone and zinc oxide specified in Table 1 were added to and homogeneously incorporated in aliquots of a commercially available, preservative-free, water-based matt interior dispersion paint (pH: 8.3; binder: ethylene vinyl acetate; pigment volume concentration (PVC): 77%). After 30 to 45 minutes, the sodium pyrithione was then added. The controls used were samples containing chloro-2-methyl-4-isothiazolinone and sodium pyrithione without zinc oxide and samples containing chloro-2-methyl-4-isothiazolinone only. The samples were stored at 21° C. and, after the time intervals specified in Table 1 (4 hours, 24 hours, 72 hours, 168 hours and 336 hours), the amount of chloro-2-methyl-4-isothiazolinone remaining in the paint was determined with the aid of HPLC analyses.

Cn1sc(Cl)cc1=O [CIMT, 5-chloro-2-methyl-4-isothiazolinone]
CIMT [ppm] after storage at 21° C. 72 h (CMIT 50 ppm, ZnO 150 ppm): 11 ppm | CIMT [ppm] after storage at 21° C. 168 h (CMIT 50 ppm, ZnO 150 ppm): 8 ppm | CIMT [ppm] after storage at 21° C. 336 h (CMIT 50 ppm, ZnO 150 ppm): 1 ppm | CIMT [ppm] after storage at 21° C. 4 [h] (CMIT 50 ppm, ZnO 225 ppm): 38 ppm | CIMT [ppm] after storage at 21° C. 24 h (CMIT 50 ppm, ZnO 225 ppm): 29 ppm | CIMT [ppm] after storage at 21° C. 72 h (CMIT 50 ppm, ZnO 225 ppm): 21 ppm | CIMT [ppm] after storage at 21° C. 168 h (CMIT 50 ppm, ZnO 225 ppm): 15 ppm | CIMT [ppm] after storage at 21° C. 336 h (CMIT 50 ppm, ZnO 225 ppm): 8 ppm | CIMT [ppm] after storage at 21° C. 4 [h] (CMIT 50 ppm, ZnO 300 ppm): 47 ppm | CIMT [ppm] after storage at 21° C. 24 h (CMIT 50 ppm, ZnO 300 ppm): 42 ppm | CIMT [ppm] after storage at 21° C. 72 h (CMIT 50 ppm, ZnO 300 ppm): 34 ppm | CIMT [ppm] after storage at 21° C. 168 h (CMIT 50 ppm, ZnO 300 ppm): 24 ppm | CIMT [ppm] after storage at 21° C. 336 h (CMIT 50 ppm, ZnO 300 ppm): 14 ppm | CIMT [ppm] after storage at 21° C. 4 [h] (CMIT 50 ppm, ZnO 375 ppm): 49 ppm | CIMT [ppm] after storage at 21° C. 24 h (CMIT 50 ppm, ZnO 375 ppm): 49 ppm | CIMT [ppm] after storage at 21° C. 72 h (CMIT 50 ppm, ZnO 375 ppm): 40 ppm | CIMT [ppm] after storage at 21° C. 168 h (CMIT 50 ppm, ZnO 375 ppm): 30 ppm | CIMT [ppm] after storage at 21° C. 336 h (CMIT 50 ppm, ZnO 375 ppm): 23 ppm | CIMT [ppm] after storage at 21° C. 4 [h] (CMIT 50 ppm, ZnO 450 ppm): 50 ppm | CIMT [ppm] after storage at 21° C. 24 h (CMIT 50 ppm, ZnO 450 ppm): 47 ppm | CIMT [ppm] after storage at 21° C. 72 h (CMIT 50 ppm, ZnO 450 ppm): 42 ppm | CIMT [ppm] after storage at 21° C. 168 h (CMIT 50 ppm, ZnO 450 ppm): 35 ppm | CIMT [ppm] after storage at 21° C. 336 h (CMIT 50 ppm, ZnO 450 ppm): 28 ppm | CIMT [ppm] after storage at 21° C. 4 [h] (CMIT 50 ppm, ZnO 525 ppm): 51 ppm | CIMT [ppm] after storage at 21° C. 24 h (CMIT 50 ppm, ZnO 525 ppm): 50 ppm | CIMT [ppm] after storage at 21° C. 72 h (CMIT 50 ppm, ZnO 525 ppm): 45 ppm | CIMT [ppm] after storage at 21° C. 168 h (CMIT 50 ppm, ZnO 525 ppm): 38 ppm | CIMT [ppm] after storage at 21° C. 336 h (CMIT 50 ppm, ZnO 525 ppm): 31 ppm | CIMT [ppm] after storage at 21° C. 4 [h] (CMIT 100 ppm, ZnO 0 ppm): 8 ppm | CIMT [ppm] after storage at 21° C. 24 h (CMIT 100 ppm, ZnO 0 ppm): <LOQ (below the limit of determination (<0.5 ppm CMIT)) | CIMT [ppm] after storage at 21° C. 72 h (CMIT 100 ppm, ZnO 0 ppm): <LOQ (below the limit of determination (<0.5 ppm CMIT)) | CIMT [ppm] after storage at 21° C. 168 h (CMIT 100 ppm, ZnO 0 ppm): <LOQ (below the limit of determination (<0.5 ppm CMIT)) | CIMT [ppm] after storage at 21° C. 336 h (CMIT 100 ppm, ZnO 0 ppm): <LOQ (below the limit of determination (<0.5 ppm CMIT)) | CIMT [ppm] after storage at 21° C. 4 [h] (CMIT 100 ppm, ZnO 75 ppm): 37 ppm | CIMT [ppm] after storage at 21° C. 24 h (CMIT 100 ppm, ZnO 75 ppm): 25 ppm | CIMT [ppm] after storage at 21° C. 72 h (CMIT 100 ppm, ZnO 75 ppm): 13 ppm | CIMT [ppm] after storage at 21° C. 168 h (CMIT 100 ppm, ZnO 75 ppm): 6 ppm | CIMT [ppm] after storage at 21° C. 336 h (CMIT 100 ppm, ZnO 75 ppm): <LOQ (below the limit of determination (<0.5 ppm CMIT)) | CIMT [ppm] after storage at 21° C. 4 [h] (CMIT 100 ppm, ZnO 150 ppm): 52 ppm | CIMT [ppm] after storage at 21° C. 24 h (CMIT 100 ppm, ZnO 150 ppm): 39 ppm | CIMT [ppm] after storage at 21° C. 72 h (CMIT 100 ppm, ZnO 150 ppm): 28 ppm | CIMT [ppm] after storage at 21° C. 168 h (CMIT 100 ppm, ZnO 150 ppm): 16 ppm | CIMT [ppm] after storage at 21° C. 336 h (CMIT 100 ppm, ZnO 150 ppm): 5 ppm | CIMT [ppm] after storage at 21° C. 4 [h] (CMIT 100 ppm, ZnO 225 ppm): 67 ppm | CIMT [ppm] after storage at 21° C. 24 h (CMIT 100 ppm, ZnO 225 ppm): 56 ppm | CIMT [ppm] after storage at 21° C. 72 h (CMIT 100 ppm, ZnO 225 ppm): 37 ppm | CIMT [ppm] after storage at 21° C. 168 h (CMIT 100 ppm, ZnO 225 ppm): 22 ppm | CIMT [ppm] after storage at 21° C. 336 h (CMIT 100 ppm, ZnO 225 ppm): 14 ppm | CIMT [ppm] after storage at 21° C. 4 [h] (CMIT 100 ppm, ZnO 300 ppm): 83 ppm | CIMT [ppm] after storage at 21° C. 24 h (CMIT 100 ppm, ZnO 300 ppm): 76 ppm | CIMT [ppm] after storage at 21° C. 72 h (CMIT 100 ppm, ZnO 300 ppm): 64 ppm | CIMT [ppm] after storage at 21° C. 168 h (CMIT 100 ppm, ZnO 300 ppm): 47 ppm | CIMT [ppm] after storage at 21° C. 336 h (CMIT 100 ppm, ZnO 300 ppm): 28 ppm | CIMT [ppm] after storage at 21° C. 4 [h] (CMIT 100 ppm, ZnO 375 ppm): 93 ppm | CIMT [ppm] after storage at 21° C. 24 h (CMIT 100 ppm, ZnO 375 ppm): 89 ppm | CIMT [ppm] after storage at 21° C. 72 h (CMIT 100 ppm, ZnO 375 ppm): 77 ppm | CIMT [ppm] after storage at 21° C. 168 h (CMIT 100 ppm, ZnO 375 ppm): 63 ppm | CIMT [ppm] after storage at 21° C. 336 h (CMIT 100 ppm, ZnO 375 ppm): 44 ppm | CIMT [ppm] after storage at 21° C. 4 [h] (CMIT 100 ppm, ZnO 450 ppm): 102 ppm | CIMT [ppm] after storage at 21° C. 24 h (CMIT 100 ppm, ZnO 450 ppm): 96 ppm | CIMT [ppm] after storage at 21° C. 72 h (CMIT 100 ppm, ZnO 450 ppm): 88 ppm | CIMT [ppm] after storage at 21° C. 168 h (CMIT 100 ppm, ZnO 450 ppm): 75 ppm | CIMT [ppm] after storage at 21° C. 336 h (CMIT 100 ppm, ZnO 450 ppm): 61 ppm | CIMT [ppm] after storage at 21° C. 4 [h] (CMIT 100 ppm, ZnO 525 ppm): 100 ppm | CIMT [ppm] after storage at 21° C. 24 h (CMIT 100 ppm, ZnO 525 ppm): 101 ppm | CIMT [ppm] after storage at 21° C. 72 h (CMIT 100 ppm, ZnO 525 ppm): 94 ppm | CIMT [ppm] after storage at 21° C. 168 h (CMIT 100 ppm, ZnO 525 ppm): 84 ppm | CIMT [ppm] after storage at 21° C. 336 h (CMIT 100 ppm, ZnO 525 ppm): 72 ppm
